{
  "source": "patent US20090137538A1",
  "about": "“METHOD OF TREATING ATROPHIC VAGINITIS” (priority 2006, published 2009)",
  "key": {"[1]": {"test_system": "women with recurrent urinary tract infections", "details": "cited from earlier work"}, "endometrium [2]": {"test_system": "endometrium", "details": "oral 2 mg per day, average three weeks prior to hysterectomy; cited from earlier work"}, "SIV": {"test_system": "SIV", "details": "vaginal transmission; base cream alone 75%; cited from earlier work"}, "[3]": {"target": "T1, sex hormone-binding globulin (SHBG) (Homo sapiens, UniProt P04278)", "T1 sequence (P04278 30-402)": "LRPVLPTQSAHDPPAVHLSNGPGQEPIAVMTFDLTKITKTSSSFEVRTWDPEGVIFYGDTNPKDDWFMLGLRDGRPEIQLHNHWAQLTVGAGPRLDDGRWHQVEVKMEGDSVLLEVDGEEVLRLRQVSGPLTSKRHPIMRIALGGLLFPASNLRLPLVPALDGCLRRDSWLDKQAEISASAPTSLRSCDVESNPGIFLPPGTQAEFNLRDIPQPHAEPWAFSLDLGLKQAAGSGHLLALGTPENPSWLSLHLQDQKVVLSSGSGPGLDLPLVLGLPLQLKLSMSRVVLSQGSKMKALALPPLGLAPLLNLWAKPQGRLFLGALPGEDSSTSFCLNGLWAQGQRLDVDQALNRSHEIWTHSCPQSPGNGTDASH", "details": "unlike estradiol and estrone; cited from earlier work"}, "menopausal women": {"test_system": "menopausal women", "details": "cited from earlier work"}, "lactobacilli": {"test_system": "lactobacilli", "details": "cited from earlier work"}, "[4]": {"test_system": "urinary urgency, urge incontinence, nocturia", "details": "vaginal therapy; cited from earlier work"}, "[5]": {"details": "relative risk ratio vs placebo, cited from earlier work"}, "endometrium [6]": {"test_system": "endometrium", "test": "Example 6: endometrial biopsy at 6 months", "type": "in vivo, human", "details": "vaginal dose of 30 mg in the combination suppository, biopsy after 6 months", "description": "Five patients underwent an endometrial biopsy (EMB) after 6 months of treatment."}, "[7]": {"details": "cited from earlier work"}, "[8]": {"details": "cited from earlier work", "remark": "listed apart in the source"}, "[9]": {"details": "vaginal ring, after vaginal administration; cited from earlier work"}, "[10]": {"details": "cited from earlier work", "remark": "listed apart in the source"}, "[11]": {"details": "dose of 0.5 mg, menopausal patients"}},
  "note": "Read-outs that look alike come from different tables or passages of the source.",
  "data": [
    {"smiles": "C[C@]12CC[C@@H]3c4ccc(O)cc4CC[C@H]3[C@@H]1C[C@@H](O)[C@@H]2O", "note": "[Estriol, 16-alpha, 17-beta, estra 1,3,5 (10) triene 3, 16, 17-triol]", "values": [
      {"measurement": "reduction of the requirement for antibiotics compared to those unsupplemented", "setting": "[1]", "result": "up to 16 times"},
      {"measurement": "women with hyperplastic changes on histological exam of the uteri", "setting": "endometrium [2]", "result": 70.8, "unit": "%"},
      {"measurement": "SIV infection rate", "setting": "SIV", "result": 8.3, "unit": "%"},
      {"measurement": "binding to sex hormone-binding globulin", "setting": "[3]", "result": "does not bind"},
      {"measurement": "reduction of the vaginal pH", "setting": "menopausal women; [11]", "result": "failed to reduce"},
      {"measurement": "vaginal pH after therapy", "setting": "menopausal women; menopausal women, ovules 1 mg, 24 weeks", "result": 4.12},
      {"measurement": "patients in whom lactobacilli reappeared", "setting": "lactobacilli; after one month, no patients receiving placebo", "result": 61, "unit": "%"},
      {"measurement": "restoration of the population of lactobacilli", "setting": "lactobacilli; [11]", "result": "failed to restore"},
      {"measurement": "alleviating nocturia", "setting": "[4]", "result": 54, "unit": "%"},
      {"measurement": "alleviating urge incontinence", "setting": "[4]", "result": 58, "unit": "%"},
      {"measurement": "alleviating urinary urgency", "setting": "[4]", "result": 56, "unit": "%"}
    ]},
    {"smiles": "O=C(O[C@H]1C[C@H]2CC[C@@H](C1)[N+]21CCCC1)C(O)(c1ccccc1)c1ccccc1", "note": "[Trospium]", "values": [
      {"measurement": "Any AE*", "setting": "[5]; dose 40 mg", "result": 1.5},
      {"measurement": "Constipation", "setting": "[5]; dose 40 mg", "result": 2.1},
      {"measurement": "Dry Mouth", "setting": "[5]; dose 40 mg", "result": 3.2}
    ]},
    {"smiles": "CC(=O)[C@H]1CC[C@H]2[C@@H]3CCC4=CC(=O)CC[C@]4(C)[C@H]3CC[C@]12C", "note": "[Progesterone, pregn-4-ene-3, 20-dione]", "values": [
      {"measurement": "effect on estrogen stimulated postmenopausal endometrium", "setting": "endometrium [6]", "result": "anti-proliferative effect"},
      {"measurement": "serum concentration", "setting": "[7]; 25 mg vaginal suppository", "result": 7.27, "unit": "ng/mL"},
      {"measurement": "serum concentration", "setting": "[7]; 50 mg vaginal suppository", "result": 8.84, "unit": "ng/mL"},
      {"measurement": "Quality of life/menopausal symptoms", "setting": "[8]; MP-containing HRT compared with MPA-containing regimen", "result": "containing HRT experienced significant improvement in symptoms"},
      {"measurement": "Cardiovascular Events", "setting": "[8]; in vivo", "result": "MP: has antihypertensive action and can be safely used to treat"},
      {"measurement": "Lipid Profile", "setting": "[8]; in vivo", "result": "MP: does not negate the beneficial effects of estrogen and modestly"},
      {"measurement": "Liver function", "setting": "[8]; in vivo", "result": "MP: does not effect liver enzymes or cause liver related side"},
      {"measurement": "Sleep and Mood", "setting": "[8]; in vivo", "result": "MP: improves the quality of sleep and has sedative properties."}
    ]},
    {"smiles": "C#C[C@]1(O)CC[C@H]2[C@@H]3CCc4cc(O)ccc4[C@H]3CC[C@@]21C", "note": "[ethinylestradiol]", "values": [
      {"measurement": "bioavailability", "setting": "[9]", "result": "approximately 55.6%"}
    ]},
    {"smiles": "NC(=O)C(c1ccccc1)(c1ccccc1)[C@@H]1CCN(CCc2ccc3c(c2)CCO3)C1", "note": "[Darifenacin]", "values": [
      {"measurement": "Any AE*", "setting": "[5]; dose 7.5 mg", "result": 1.2},
      {"measurement": "Constipation", "setting": "[5]; dose 7.5 mg", "result": 2.2},
      {"measurement": "Dry Mouth", "setting": "[5]; dose 7.5 mg", "result": 2.2},
      {"measurement": "Any AE*", "setting": "[5]; dose 15 mg", "result": 1.4},
      {"measurement": "Constipation", "setting": "[5]; dose 15 mg", "result": 2.4},
      {"measurement": "Dry Mouth", "setting": "[5]; dose 15 mg", "result": 2.9}
    ]},
    {"smiles": "CC(=O)O[C@]1(C(C)=O)CC[C@H]2[C@@H]3C[C@H](C)C4=CC(=O)CC[C@]4(C)[C@H]3CC[C@@]21C", "note": "[MPA, Medroxyprogesterone Acetate]", "values": [
      {"measurement": "Lipid Profile", "setting": "[8]; in vivo", "result": "MPA: adversely effects lipid profile and negates the beneficial"},
      {"measurement": "Liver function", "setting": "[8]; in vivo", "result": "MPA: contraindicated in patients with liver dysfunction."},
      {"measurement": "Sleep and Mood", "setting": "[8]; in vivo", "result": "MPA: can cause insomnia, mental depression, and anxiety."}
    ]},
    {"smiles": "CCN(CC)CC#CCOC(=O)C(O)(c1ccccc1)C1CCCCC1", "note": "(stereo not drawn) [Oxybutynin IR, Oxybutynin]", "values": [
      {"measurement": "Any AE*", "setting": "[5]; dose 8.8-15 mg", "result": 1.4},
      {"measurement": "Blurred Vision", "setting": "[5]; dose 8.8-15 mg", "result": 1.7},
      {"measurement": "Dry Mouth", "setting": "[5]; dose 8.8-15 mg", "result": 3.3},
      {"measurement": "Dyspepsia", "setting": "[5]; dose 8.8-15 mg", "result": 3.3},
      {"measurement": "Urinary Retention*", "setting": "[5]; dose 8.8-15 mg", "result": 5.6}
    ]},
    {"smiles": "C[C@]12CC[C@@H]3c4ccc(O)cc4CC[C@H]3[C@@H]1CC[C@@H]2O", "note": "[estradiol]", "values": [
      {"measurement": "serum estradiol levels after vaginal versus oral administration", "setting": "[10]; same dose", "result": "ten-fold higher"},
      {"measurement": "endometrial concentrations after vaginal versus oral administration", "setting": "[10]; same exact dose", "result": "seventy-fold higher"}
    ]}
  ]
}
